Where “and” joins values, the source holds several entries; their conditions need not be identical. Identical values can stand only once.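 Method: 48-hour compound exposure of cells in 96-well plates, five concentrations, linear interpolation of endpoints. GI50 = concentration required for 50% inhibition of growth. The concentration for full growth arrest is given as TGI.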
Legend:
Assay in all cases: NCI-60 cell line screen, 48 h
UACC-62 melanoma = test system: UACC-62 melanoma
SN12C renal = test system: SN12C renal
UO-31 renal = test system: UO-31 renal
TK-10 renal = test system: TK-10 renal
SR leukemia = test system: SR leukemia
KM12 colon = test system: KM12 colon
SF-539 CNS = test system: SF-539 CNS
NCI-H226 lung = test system: NCI-H226 lung
HOP-62 NSCLC = test system: HOP-62 NSCLC
RPMI-8226 leukemia = test system: RPMI-8226 leukemia

Row | Compound | TGI (UACC-62 melanoma) | TGI (SN12C renal) | TGI (UO-31 renal) | TGI (TK-10 renal) | TGI (SR leukemia) | TGI (KM12 colon) | TGI (SF-539 CNS) | TGI (NCI-H226 lung) | TGI (HOP-62 NSCLC) | TGI (RPMI-8226 leukemia) | GI50 (NCI-H226 lung) | GI50 (UACC-62 melanoma) | GI50 (SN12C renal) | GI50 (UO-31 renal) | GI50 (TK-10 renal) | GI50 (HOP-62 NSCLC) | GI50 (KM12 colon) | GI50 (RPMI-8226 leukemia) | GI50 (SF-539 CNS) | GI50 (SR leukemia)
1 | COc1cc(/C=C(\NC(=O)c2ccccc2)c2nc3ncncc3[nH]2)cc(OC)c1OC | > 100 µM | > 100 µM | > 100 µM | > 100 µM | > 100 µM | > 100 µM | > 100 µM |  |  |  |  |  |  |  |  |  |  |  |  | 
2 | COc1ccccc1/C=C\C(=O)C1COCN1 (stereo not drawn) | 31.9 µM | 35.1 µM | 44 µM | 50.8 µM |  | 24.6 µM | 38.5 µM | 39.7 µM | 57.4 µM | 7.53 µM |  |  |  |  |  |  |  |  |  | 
3 | COc1cc2c(c(OC)c1OC)-c1ccc(SC)c(=O)cc1[C@@H](NC(=O)C(F)(F)F)CC2 | > 100 µM | 16.5 µM | > 95.7 µM | > 100 µM | > 100 µM | < 0.0631 µM | < 0.01 µM |  | > 100 µM | > 100 µM |  |  |  |  |  |  |  |  |  | 
4 | CC(C)COC1Sc2ccccc2S1 | 25.8 µM | 36.2 µM | 29.4 µM | 43 µM |  |  |  |  | 41.3 µM | > 100 µM |  |  |  |  |  |  |  |  |  | 
5 | CCN(CC)CCN1c2nc3ccccc3cc2Sc2cc3ccccc3nc21 | 4.37 µM | 12.2 µM | 5.09 µM | 8.74 µM |  | 5 µM | 3.16 µM | 14.2 µM | 3.06 µM | 2.97 µM | 3.31 µM | 1.77 µM | 2.28 µM | 0.97 µM | 3.54 µM | 1.42 µM | 2.01 µM | 1 µM | 1.6 µM | 
6 | O=C(Nc1ccc(Cl)cc1C(=O)O)c1ccc([N+](=O)[O-])cc1 | 45.6 µM | > 100 µM | 44.1 µM | 86.4 µM |  | 36.2 µM | 37.5 µM | 72.2 µM | 39.2 µM | 97.3 µM |  |  |  |  |  |  |  |  |  | 
7 | CCCCNC(=S)OCCC(C)CCCC(C)C (stereo not drawn) | > 100 µM | > 100 µM | > 100 µM | > 100 µM | > 100 µM | > 100 µM | > 100 µM |  | > 100 µM | > 100 µM |  |  |  |  |  |  |  |  |  | 
8 | N#CC1(C#N)C=CC(=C2OCC3CCCN23)C=C1 (stereo not drawn) | > 100 µM | > 100 µM | > 100 µM | > 100 µM |  | > 100 µM | > 100 µM | > 100 µM | > 100 µM | > 100 µM |  |  |  |  |  |  |  |  |  | 
9 | NCCCNc1nc2ccccc2c2c(=O)c3cccc(Cl)c3sc12 | 3.17 µM | 3.05 µM | 2.24 µM | 3.95 µM | 2.99 µM |  | 3.02 µM |  |  |  |  | 1.67 µM | 1.52 µM | 1.03 µM | 2.31 µM |  |  |  | 1.63 µM | 0.606 µM
10 | O=C1C=C2CCCC2C(C(=O)O)(C(=O)O)C1 (stereo not drawn) | > 100 µM | > 100 µM | > 100 µM | > 100 µM |  | > 100 µM | > 100 µM |  | > 100 µM | > 100 µM |  |  |  |  |  |  |  |  |  | 
11 | CC1=CP(=O)(c2ccccc2)C=C(C)C1=C(Cl)Cl (stereo not drawn) | 21.7 µM | 81.8 µM |  | 43.3 µM |  | 14.9 µM | 88.6 µM | 9.68 µM | 12.5 µM | 11.5 µM |  |  |  |  |  |  |  |  |  | 
12 | COc1ccc2c(c1)CCc1cc(OC)ccc1/[N+]([O-])=[N+]\2[O-] | 30.6 µM | 31.6 µM | 25.9 µM | 45 µM | > 42.7 µM | 46 µM | 44 µM |  | 52.8 µM | > 25.1 µM |  |  |  |  |  |  |  |  |  | 
13 | OC1CCCC2CCC[N-]C12.OC1CCCC2CCC[N-]C12.[O]=[V][OH] (stereo not drawn) | 24.7 µM | > 100 µM | 9.29 µM | > 100 µM |  | > 100 µM | > 100 µM | > 100 µM | > 100 µM | 25.8 µM | 42 µM | 3.98 µM | 5.91 µM | 2.13 µM | 44.9 µM | 7.15 µM | 7.24 µM | 2.54 µM | 15.8 µM | 
14 | COc1ccc(O)cc1C(O)c1ccccc1 (stereo not drawn) | > 100 µM | > 100 µM | > 100 µM | > 100 µM |  | > 100 µM | > 100 µM | > 100 µM | > 100 µM |  |  |  |  |  |  |  |  |  |  | 
15 | Nc1nc2c(-c3ccc([N+](=O)[O-])cc3)nnn2c2ccccc12 | > 100 µM | > 100 µM | > 100 µM | 48.9 µM |  | > 100 µM | > 100 µM | > 100 µM | > 100 µM | > 100 µM |  |  |  |  |  |  |  |  |  | 
16 | COc1ccc(-c2cn(-c3ccc(OC)c(OC)c3)c(=O)[nH]2)cc1 | > 100 µM | > 100 µM | > 100 µM | > 100 µM |  | > 100 µM | > 100 µM | > 100 µM | > 100 µM | > 100 µM | > 100 µM | > 100 µM | > 100 µM | > 100 µM | > 100 µM | > 100 µM | 92.1 µM | > 100 µM | > 100 µM | 
17 | CCc1cc2c(O)c(c1)Cc1cc(CC)cc(c1O)Cc1cc(CC)cc(c1O)Cc1cc(CC)cc(c1O)Cc1cc(CC)cc(c1O)Cc1cc(CC)cc(c1O)Cc1cc(CC)cc(c1O)C2 | > 100 µM | > 100 µM | > 100 µM | > 100 µM |  | > 100 µM | > 100 µM |  | > 100 µM | > 100 µM |  |  |  |  |  |  |  |  |  | 
18 | O=C1C=C(OCC=C(C(F)(F)F)C(F)(F)F)c2ccccc2C1=O | 4.1 µM | 2.37 µM | 3.1 µM |  | 7.43 µM | 3.25 µM | 3.63 µM |  | 3.69 µM | 4.29 µM |  | 1.7 µM | 1.09 µM | 1.53 µM |  | 1.87 µM | 1.67 µM | 1.63 µM | 1.84 µM | 2.02 µM
19 | c1ccc2c(c1)Cc1c(Cc3csc4ccccc34)ccc3cccc-2c13 | > 100 µM | > 100 µM | > 100 µM |  |  | > 100 µM | > 100 µM |  | > 100 µM | > 100 µM |  |  |  |  |  |  |  |  |  | 
20 | COc1ccc(/C=C/C(=O)c2c(-c3ccccc3)nn(C)c(=O)c2N2CCOCC2)cc1 | > 100 µM | > 100 µM | > 100 µM | > 100 µM |  |  | > 100 µM |  |  | > 100 µM |  |  |  |  |  |  |  |  |  | 
21 | CCCCOc1ccc(/C=N/Nc2cc(C)nc3ccc(Br)cc23)cc1 | 3.26 µM | 3.25 µM | 2.82 µM | 3.31 µM |  | 3.85 µM | 3.29 µM | 3.82 µM | 2.94 µM | 4.58 µM | 1.83 µM | 1.74 µM | 1.74 µM | 1.48 µM | 1.91 µM | 1.47 µM | 1.95 µM | 2.03 µM | 1.84 µM | 
22 | C#CC1(O)C(COP(=O)(O)OCC2OC(n3cc(F)c(=O)[nH]c3=O)CC2O)OC(n2ccc(N)nc2=O)C1O (stereo not drawn) | 0.372 µM |  | > 100 µM |  |  | > 23.8 µM | 0.527 µM | > 100 µM | 1.28 µM | 0.119 µM | < 0.01 µM | < 0.0141 µM | < 0.01 µM | < 0.01 µM | 0.01 µM | < 0.0328 µM | < 0.01 µM | < 0.01 µM | < 0.01 µM | 
23 | N#C/C(=C1\OC(=N)C(c2ccccc2)C1=O)c1ccccc1 (stereo not drawn) | 52.7 µM | > 81.6 µM | 42.8 µM | 68.5 µM |  | > 100 µM | > 31.6 µM | > 100 µM | > 100 µM | 73.3 µM |  |  |  |  |  |  |  |  |  | 
24 | C/C=C/C(=O)[O-].C/C=C/C(=O)[O-].N.N.N.N.[Co+3].[O-][Cl+3]([O-])([O-])[O-] | > 100 µM | > 100 µM | > 100 µM | > 100 µM |  | > 100 µM | > 100 µM |  | > 100 µM | > 100 µM |  | > 100 µM | > 100 µM | > 100 µM | > 100 µM | > 100 µM | > 100 µM | > 100 µM | > 100 µM | 
25 | Cc1ccc(N=C2N=C(N3CC(C)OC(C)C3)c3ccccc32)cc1 (stereo not drawn) | > 100 µM | > 100 µM | 54.2 µM | > 100 µM |  | 62.5 µM | 38.1 µM | > 100 µM | > 100 µM | 87.1 µM |  |  |  |  |  |  |  |  |  | 
26 | C=C1C(=O)O[C@H]2[C@H]1CC/C(COC(=O)/C=C\C(=O)NCc1ccc(Cn3c(=O)sn(CCI)c3=O)cc1)=C\CC[C@@]1(C)O[C@@H]21 | 3.86 µM | 10.8 µM | 8.47 µM | 4.35 µM |  | 24.5 µM | 9.51 µM | 49 µM | 28.6 µM |  | 20.9 µM | 1.83 µM | 3.15 µM | 2.56 µM | 2.09 µM | 15.1 µM | 11.5 µM |  | 3.36 µM | 
27 | CCCCCCCCCCNCCSS(=O)(=O)O | 3 µM | 3.6 µM | 12.9 µM | 17.7 µM |  | 2.95 µM | 5.21 µM | 5.16 µM | 3.58 µM | 5.7 µM | 2.51 µM | 1.42 µM | 1.86 µM | 3.3 µM | 5.31 µM | 1.86 µM | 1.55 µM | 2.2 µM | 2.31 µM | 
28 | COc1ccc2c(c1)/C(=C\c1c(-c3cc(OC)ccc3OC)nc3sccn13)C(=O)N2 | 28.5 µM |  | 3.02 µM | 3.14 µM |  | 3.98 µM |  | 54.2 µM | 3.29 µM |  | 11.8 µM | 5.42 µM and 12.4 µM |  | 1.57 µM | 1.76 µM | 1.75 µM | 2 µM | 3.4 µM |  | 
